Data taken from patent US20230398130A1, “METHODS AND COMPOSITIONS FOR DIFFERENTIATING STEM CELLS” (Massachusetts Institute of Technology, priority 2020, published 2023).

How the values were obtained:
ISC-enriched organoids [1] = assay: Primary screen, 384-well 2.5-D organoid differentiation (ENR+CD, 6 days): carbachol-induced lysozyme secretion (LYZ.S); assay type: cell-based, murine; details: primary screen, FC vs plate median
From the text: (§1) High-throughput screening.

ISC-enriched organoids [2] = assay: Primary screen, 384-well 2.5-D organoid differentiation (ENR+CD, 6 days): basal lysozyme secretion (LYZ.NS); assay type: cell-based, murine; details: for Dose.FC.LYZ.NS: primary screen, FC vs plate median; for Z.LYZ.NS: standard z score of FC
From the text: as §1

ISC-enriched organoids [3] = assay: Primary screen, 384-well 2.5-D organoid differentiation (ENR+CD, 6 days, Target Selective Inhibitor Library, vs whole-plate median): ATP (CellTiter-Glo 3D, CTG); details: for Dose.FC.CTG: primary screen, FC vs plate median; for Z.CTG: standard z score of FC

Row | Compound | Dose.FC.LYZ.S (ISC-enriched organoids [1]; Dose 0.08 uM) [log 2 fold change] | Dose.FC.LYZ.S (ISC-enriched organoids [1]; Dose 0.40 uM) [log 2 fold change] | Dose.FC.LYZ.S (ISC-enriched organoids [1]; Dose 2.00 uM) [log 2 fold change] | Dose.FC.LYZ.S (ISC-enriched organoids [1]; Dose 10.00 uM) [log 2 fold change] | Dose.FC.LYZ.NS (ISC-enriched organoids [2]; Dose 0.08 uM) [log 2 fold change] | Z.LYZ.NS (ISC-enriched organoids [2]; Dose 0.08 uM) | Dose.FC.LYZ.NS (ISC-enriched organoids [2]; Dose 0.40 uM) [log 2 fold change] | Z.LYZ.NS (ISC-enriched organoids [2]; Dose 0.40 uM) | Dose.FC.LYZ.NS (ISC-enriched organoids [2]; Dose 2.00 uM) [log 2 fold change] | Z.LYZ.NS (ISC-enriched organoids [2]; Dose 2.00 uM) | Dose.FC.LYZ.NS (ISC-enriched organoids [2]; Dose 10.00 uM) [log 2 fold change] | Z.LYZ.NS (ISC-enriched organoids [2]; Dose 10.00 uM) | Dose.FC.CTG (ISC-enriched organoids [3]; Dose 0.08 uM) [log 2 fold change] | Z.CTG (ISC-enriched organoids [3]; Dose 0.08 uM) | Dose.FC.CTG (ISC-enriched organoids [3]; Dose 0.40 uM) [log 2 fold change] | Z.CTG (ISC-enriched organoids [3]; Dose 0.40 uM) | Dose.FC.CTG (ISC-enriched organoids [3]; Dose 2.00 uM) [log 2 fold change] | Z.CTG (ISC-enriched organoids [3]; Dose 2.00 uM) | Dose.FC.CTG (ISC-enriched organoids [3]; Dose 10.00 uM) [log 2 fold change] | Z.CTG (ISC-enriched organoids [3]; Dose 10.00 uM)
1 | C[C@]1(O)C[C@@H](c2nc(-c3ccc4ccc(-c5ccccc5)nc4c3)c3c(N)nccn32)C1 [OSI-906 (Linsitinib)] | −0.026 | −0.119 | −0.288 | −0.328 | 0.013 | 0.110 | −0.093 | −0.806 | −0.216 | −1.882 | −0.229 | −1.996 | −0.324 | −0.775 | −0.158 | −0.377 | −0.277 | −0.661 | −0.391 | −0.934
2 | NCC(=O)Nc1ccc(-n2nc(C(F)(F)F)cc2-c2ccc3c(ccc4ccccc43)c2)cc1 [OSU-03012 (AR-12)] | 0.126 | 0.113 | 0.060 | −0.128 | 0.087 | 0.755 | 0.033 | 0.285 | 0.053 | 0.460 | −0.049 | −0.423 | 0.205 | 0.491 | 0.114 | 0.272 | 0.233 | 0.556 | 0.078 | 0.185
3 | CC(C)(F)C[C@H](N[C@@H](c1ccc(-c2ccc(S(C)(=O)=O)cc2)cc1)C(F)(F)F)C(=O)NC1(C#N)CC1 [Odanacatib (MK-0822)] | 0.091 | 0.170 | 0.036 | −0.074 | 0.086 | 0.752 | 0.162 | 1.409 | 0.024 | 0.212 | −0.035 | −0.307 | 0.119 | 0.285 | 0.208 | 0.496 | −0.008 | −0.020 | 0.006 | 0.015
4 | CC[C@@H]1/C=C/C=C/C[C@H](C)[C@H](O)[C@](C)(O)C(=O)[C@H](C)[C@@H](O)[C@H](C)C(=O)[C@H](C)[C@@H](O)[C@H](C)/C=C/C(=O)O[C@H]2[C@@H](C)[C@@H](CC1)O[C@@]1(CC[C@@H](C)[C@@H](C[C@H](C)O)O1)[C@@H]2C [Oligomycin A] | −0.243 | −0.274 | −0.269 | −0.288 | −0.204 | −1.778 | −0.231 | −2.013 | −0.213 | −1.857 | −0.223 | −1.943 | −0.662 | −1.581 | −0.706 | −1.685 | −0.946 | −2.261 | −1.244 | −2.972
5 | CCc1c(C(=O)NCCc2ccc(N3CCCCC3)cc2)[nH]c2ccc(Cl)cc12 [Org 27569] | 0.174 | 0.032 | 0.059 | 0.001 | 0.122 | 1.060 | 0.051 | 0.445 | 0.078 | 0.683 | 0.029 | 0.248 | 0.278 | 0.663 | 0.072 | 0.173 | 0.362 | 0.865 | 0.270 | 0.646
6 | CC(=O)c1cc([N+](=O)[O-])c(Sc2ccc(F)cc2F)s1 [P22077] | −0.182 | 0.065 | −0.007 | −0.063 | 0.039 | 0.338 | −0.005 | −0.041 | 0.028 | 0.248 | −0.056 | −0.487 | −0.216 | −0.516 | 0.049 | 0.117 | −0.134 | −0.320 | −0.130 | −0.311
7 | C=CCc1cccc(/C=N/NC(=O)CN2CCN(Cc3ccccc3)CC2)c1O [PAC-1] | 0.128 | 0.059 | −0.006 | 0.092 | 0.157 | 1.365 | 0.053 | 0.457 | 0.126 | 1.094 | 0.068 | 0.596 | 0.095 | 0.228 | 0.113 | 0.270 | −0.241 | −0.576 | 0.002 | 0.004
8 | O=C(NOCC1CC1)c1ccc(F)c(F)c1Nc1ccc(I)cc1Cl [PD184352 (CI-1040)] | −0.019 | −0.047 | −0.178 | −0.239 | −0.019 | −0.162 | −0.053 | −0.458 | −0.135 | −1.176 | −0.116 | −1.011 | 0.366 | 0.874 | 0.261 | 0.624 | −0.212 | −0.506 | −0.796 | −1.901
